Reference: US7795272B2, “Glucocorticoid mimetics, methods of making them, pharmaceutical compositions and uses thereof” (Boehringer Ingelheim Pharmaceutical, Inc., priority 2004, dated 2010)

What was measured:
[1] = molecular target: T1, human glucocorticoid receptor (GR) complex (Homo sapiens, UniProt P04150); experiment: Glucocorticoid receptor competitive binding assay (fluorescence polarization); conditions: competition with TAMRA-labeled dexamethasone; result in words only
T1 construct: made in house; host or cells: insect cells (baculovirus expression), used as crude lysate
T1 sequence (P04150 1-777): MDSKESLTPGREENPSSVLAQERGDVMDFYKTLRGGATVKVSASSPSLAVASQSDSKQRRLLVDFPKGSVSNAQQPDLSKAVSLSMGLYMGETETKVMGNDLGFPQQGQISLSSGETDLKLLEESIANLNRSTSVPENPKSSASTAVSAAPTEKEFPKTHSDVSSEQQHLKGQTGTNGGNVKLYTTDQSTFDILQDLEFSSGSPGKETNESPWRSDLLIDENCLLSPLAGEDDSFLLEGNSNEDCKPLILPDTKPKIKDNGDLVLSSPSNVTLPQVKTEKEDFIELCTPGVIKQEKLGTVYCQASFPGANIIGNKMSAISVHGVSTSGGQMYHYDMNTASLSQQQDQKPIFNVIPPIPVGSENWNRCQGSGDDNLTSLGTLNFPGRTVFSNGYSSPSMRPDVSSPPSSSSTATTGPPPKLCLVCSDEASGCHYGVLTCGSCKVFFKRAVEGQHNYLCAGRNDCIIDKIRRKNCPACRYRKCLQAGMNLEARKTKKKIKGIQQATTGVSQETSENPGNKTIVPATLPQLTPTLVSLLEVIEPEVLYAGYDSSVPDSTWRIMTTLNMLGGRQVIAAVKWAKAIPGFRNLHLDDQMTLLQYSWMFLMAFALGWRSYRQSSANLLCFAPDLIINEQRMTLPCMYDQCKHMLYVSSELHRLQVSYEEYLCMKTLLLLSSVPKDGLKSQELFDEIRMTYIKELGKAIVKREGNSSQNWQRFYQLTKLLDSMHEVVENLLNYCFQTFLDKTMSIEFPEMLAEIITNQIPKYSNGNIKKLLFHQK
Procedure: Compounds of the invention were evaluated for binding to the steroid receptor by a fluorescence polarization competitive binding assay. Detailed descriptions for preparation of recombinant glucocorticoid receptor (GR) complex used in the assay is described in U.S. Patent Application Publication No. US 2003/0017503, filed May 20, 2002, and incorporated herein by reference in its entirety. Preparation of the tetramethyl rhodamine (TAMRA)-labeled dexamethasone probe was accomplished using a standard literature procedure (M. Pons et al., J. Steroid Biochem., 1985, 22, pp. 267-273).
A. Glucocorticoid Receptor Competitive Binding Assay
The affinity of the probe for the steroid receptor was then determined in a titration experiment. The fluorescence polarization value of the probe in assay buffer was measured on an SLM-8100 fluorometer using the excitation and emission maximum values described above. Aliquots of expression vector lysate were added and fluorescence polarization was measured after each addition until no further change in polarization value was observed. Non-linear least squares regression analysis was used to calculate the dissociation constant of the probe from the polarization values obtained for lysate binding to the probe.
(§1) This assay uses fluorescence polarization (FP) to quantitate the ability of test compounds to compete with tetramethyl rhodamine (TAMRA)-labeled dexamethasone for binding to a human glucocorticoid receptor (GR) complex prepared from an insect expression system. The assay buffer was: 10 mM TES, 50 mM KCl, 20 mM Na2MoO4.2H2O, 1.5 mM EDTA, 0.04% w/v CHAPS, 10% v/v glycerol, 1 mM dithiothreitol, pH 7.4. Test compounds were dissolved to 1 mM in neat DMSO and then further diluted to 10× assay concentration in assay buffer supplemented with 10% v/v DMSO. Test compounds were serially diluted at 10× assay concentrations in 10% DMSO-containing buffer in 96-well polypropylene plates. Binding reaction mixtures were prepared in 96-well black Dynex microtiter plates by sequential addition of the following assay components to each well: 15 μL of 10× test compound solution, 85 μL of GR-containing baculovirus lysate diluted 1:170 in assay buffer, and 50 μL of 15 nM TAMRA-labeled dexamethasone. Positive controls were reaction mixtures containing no test compound; negative controls (blanks) were reaction mixtures containing 0.7 μM to 2 μM dexamethasone. The binding reactions were incubated for 1 hour at room temperature and then read for fluorescence polarization in the LJL Analyst set to 550 nm excitation and 580 nm emission, with the Rhodamine 561 dichroic mirror installed. IC50 values were determined by iterative non-linear curve fitting of the FP signal data to a 4-parameter logistic equation.

[2] = system: glucocorticoid receptor; experiment: Glucocorticoid receptor function, one or more of the above assays (not specified which); type: cell-based; conditions: in one or more of the above assays; result in words only
Procedure: as §1, with “Positive controls were reaction mixtures containing no test compound; negative controls (blanks) were reaction mixtures containing 0.7 μM to 2 μM dexamethasone.” left out
Dexamethasone, a synthetic ligand to the glucocorticoid receptor (GR), induces expression of aromatase in human foreskin fibroblast cells. The activity of aromatase is measured by the conversion of testosterone to estradiol in culture media.
Human foreskin fibroblast cells (ATCC Cat. No. CRL-2429, designation CCD112SK) are plated on 96 well plates at 50,000 cells per well 5 days before use, in Iscove's Modified Dulbecco's Media (GibcoBRL Life Technologies Cat No. 12440-053) supplemented with 10% charcoal filtered FBS (Clonetech Cat No. SH30068) and Gentamycin (GibcoBRL Life Technologies Cat. No. 15710-064). […] The extent of aromatase induction by test compounds is expressed as a relative percentage to dexamethasone. […]

| Compound | activity in the GR binding assay [1] | activity as an agonist of the glucocorticoid receptor function [2] |
| --- | --- | --- |
| CC1(CC(O)(Cc2ccnc3ccccc23)C(F)(F)F)CCc2ccccc21 (stereo not drawn) [1,1,1-Trifluoro-3-(1-methylindan-1-yl)-2-quinolin-4-ylmethylpropan-2-ol] | potent activity |  |
| CC1(CC(O)(Cc2cc3ccccc3[nH]2)C(F)(F)F)CCOc2ccc(F)cc21 (stereo not drawn) [1,1,1-Trifluoro-3-(6-fluoro-4-methylchroman-4-yl)-2-(1H-indol-2-ylmethyl)propan-2-ol] | potent activity | activity as an agonist |
| CC1(CC(O)(Cc2ccnc3ccccc23)C(F)(F)F)CCOc2ccc(F)cc21 (stereo not drawn) [1,1,1-Trifluoro-3-(6-fluoro-4-methylchroman-4-yl)-2-quinolin-4-ylmethylpropan-2-ol] |  | activity as an agonist |
| OC(Cc1ccnc2ccccc12)(CC1CCOc2ccc(F)cc21)C(F)(F)F (stereo not drawn) [1,1,1-Trifluoro-3-(6-fluorochroman-4-yl)-2-quinolin-4-ylmethylpropan-2-ol] | potent activity |  |
| CC1(CC(O)(Cc2ccc(C#N)cc2Cl)C(F)(F)F)CCOc2ccc(F)cc21 (stereo not drawn) [3-Chloro-4-[3,3,3-trifluoro-2-(6-fluoro-4-methylchroman-4-ylmethyl)-2-hydroxypropyl]benzonitrile] | potent activity |  |
| Cc1cc(C#N)cc2[nH]c(CC(O)(CC3(C)CCOc4ccc(F)cc43)C(F)(F)F)cc12 (stereo not drawn) [4-Methyl-2-[3,3,3-trifluoro-2-(6-fluoro-4-methylchroman-4-ylmethyl)-2-hydroxypropyl]-1H-indole-6-carbonitrile] | potent activity | activity as an agonist |
| Cc1cc(C#N)cc2[nH]c(CC(O)(CC3(C)CCOc4ccc(S(C)(=O)=O)cc43)C(F)(F)F)cc12 (stereo not drawn) [4-Methyl-2-[3,3,3-trifluoro-2-hydroxy-2-(6-methanesulfonyl-4-methylchroman-4-ylmethyl)propyl]-1H-indole-6-carbonitrile] | potent activity |  |
